Consider eleven compounds from patent publication US10703698B2, “Compounds which activate estrogen receptors and compositions and methods of using the same” (The Board of Trustees of the University of Illinois, priority 2016, dated 2020).

In assay [1] the target is T1, purified full-length human ERβ (Homo sapiens, UniProt Q92731).
T1 construct: using purified full-length human ERα and ERβ
The experiment in a line: competitive radiometric binding assay, relative binding affinity (RBA). Particulars: relative to estradiol = 100. The text has this: (§1) FIG. 1. […] […]

Assay [2] deals with T2, purified full-length human ERα (Homo sapiens, UniProt P03372).
T2 construct: using purified full-length human ERα and ERβ
T2 sequence (P03372 1-595): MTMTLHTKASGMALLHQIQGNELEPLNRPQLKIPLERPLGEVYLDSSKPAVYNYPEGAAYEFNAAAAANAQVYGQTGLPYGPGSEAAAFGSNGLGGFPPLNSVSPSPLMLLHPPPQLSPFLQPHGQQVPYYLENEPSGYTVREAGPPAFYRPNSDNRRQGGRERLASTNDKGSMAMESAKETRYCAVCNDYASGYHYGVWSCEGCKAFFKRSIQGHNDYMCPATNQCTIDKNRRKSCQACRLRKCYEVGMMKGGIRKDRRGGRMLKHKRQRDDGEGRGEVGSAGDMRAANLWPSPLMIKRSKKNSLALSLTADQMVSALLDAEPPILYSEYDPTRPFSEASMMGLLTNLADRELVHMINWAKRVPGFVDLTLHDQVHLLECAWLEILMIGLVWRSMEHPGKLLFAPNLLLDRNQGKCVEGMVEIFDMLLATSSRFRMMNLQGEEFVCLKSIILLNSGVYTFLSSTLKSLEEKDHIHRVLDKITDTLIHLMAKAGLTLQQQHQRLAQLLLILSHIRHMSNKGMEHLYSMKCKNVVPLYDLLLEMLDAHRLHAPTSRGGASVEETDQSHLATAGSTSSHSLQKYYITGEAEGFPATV
Described as above. Particulars: relative to estradiol = 100.
Description: as §1

Assay [3] concerns LRRC54 gene. Description: LRRC54 (non-genomic gene) mRNA expression, qPCR. Particulars: MCF-7 cells; 1 μM PaPE or 10 nM E2 for 4 h where stated; versus vehicle, E2 or compound 2. Background: Real-time PCR tracks product formation cycle by cycle.
Description: (§2) Quantitation of signal intensities is shown in panel at the right.
In assay [4] the test system is PgR gene. Description: PgR (genomic gene) mRNA expression, qPCR. Particulars: MCF-7 cells; 1 μM PaPE or 10 nM E2 for 4 h where stated; versus vehicle or E2.
Description: as §2

T1 sequence (Q92731 whole entry): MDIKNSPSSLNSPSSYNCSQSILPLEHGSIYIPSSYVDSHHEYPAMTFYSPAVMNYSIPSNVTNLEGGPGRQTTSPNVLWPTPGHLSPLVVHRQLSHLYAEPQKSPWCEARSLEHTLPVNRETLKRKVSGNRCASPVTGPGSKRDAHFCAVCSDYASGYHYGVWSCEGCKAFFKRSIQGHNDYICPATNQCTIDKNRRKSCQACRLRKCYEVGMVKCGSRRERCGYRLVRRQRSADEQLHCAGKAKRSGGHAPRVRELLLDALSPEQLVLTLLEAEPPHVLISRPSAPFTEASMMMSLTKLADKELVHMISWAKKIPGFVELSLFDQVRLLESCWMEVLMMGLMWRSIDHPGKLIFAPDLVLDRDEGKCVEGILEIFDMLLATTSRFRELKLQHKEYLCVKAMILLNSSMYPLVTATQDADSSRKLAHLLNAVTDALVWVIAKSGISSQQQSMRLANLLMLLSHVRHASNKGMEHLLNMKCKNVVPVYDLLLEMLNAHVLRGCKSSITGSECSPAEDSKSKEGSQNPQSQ

With `Cc1cc(-c2ccc3c(c2)CCC3C#N)cc(C)c1O` (centres unmarked) [Compound 9, 5-(4-hydroxy-3,5-dimethylphenyl)-2,3-dihydro-1H-indene-1-carbonitrile], the “ERβ RBA (relative binding affinity)” value in assay [1] came to 0.002 ± 0.001. Also, in assay [2], the “ERα RBA (relative binding affinity)” value is given as 0.003 ± 0.001. The “LRRC54 (non-genomic gene) mRNA expression, in words” value in assay [3] is on record as “no non-genomic activity”.

For the compound `Cc1cc(C)cc(-c2ccc3c(c2)CCC3O)c1` (centres unmarked) [Compound 12, 5-(3,5-dimethylphenyl)-2,3-dihydro-1H-inden-1-ol], the “ERβ RBA (relative binding affinity)” value in assay [1] was found to be 0.002 ± 0.001. Moreover, the “ERα RBA (relative binding affinity)” value in assay [2] is reported as 0.001 ± 0. Moreover, in assay [4], the “PgR (genomic gene) mRNA expression, in words” value (from here on “PgR”) was “strongly stimulate the genomic gene PgR”. Moreover, in assay [3], the “LRRC54 (non-genomic gene) mRNA expression, in words” value is on record as “some non-genomic activity”.

Turning to `Cc1cc(-c2cccc(CO)c2)cc(C)c1O` [Compound 24], the “ERβ RBA (relative binding affinity)” value in assay [1] was 0.004 ± 0. Moreover, the “ERα RBA (relative binding affinity)” value in assay [2] was 0.005 ± 0.001. In addition, in assay [4], the “PgR” value was “slight higher than the vehicle level”.

As to `Cc1cc(-c2cc(C)c(O)c(C)c2)ccc1CO` [Compound 26], the “ERβ RBA (relative binding affinity)” value in assay [1] was found to be 0.002 ± 0.001. The “ERα RBA (relative binding affinity)” value in assay [2] is reported as less than 0.001. Besides, in assay [4], the “PgR” value was “slight higher than the vehicle level”.

Take `Cc1cc(-c2ccc(CO)c(C(F)(F)F)c2)cc(C)c1O` [Compound 27]: the “ERβ RBA (relative binding affinity)” value in assay [1] was 0.003 ± 0. In addition, the “ERα RBA (relative binding affinity)” value in assay [2] came out at 0.003 ± 0.001. Also, the “PgR” value in assay [4] is given as “slight higher than the vehicle level”.

As for `COC1CC(O)c2ccc(-c3cc(C)c(O)c(C)c3)cc21` (centres unmarked) [Compound 30], the “ERβ RBA (relative binding affinity)” value in assay [1] was 0.002 ± 0.001. Besides, in assay [2], the “ERα RBA (relative binding affinity)” value came out at 0.002 ± 0.001. In assay [4], the “PgR” value is “elevated both genomic and nongenomic gene expression to a higher level than does its parent compound 29”. Moreover, the “LRRC54 (non-genomic gene) mRNA expression, in words” value in assay [3] was “elevated both genomic and nongenomic gene expression to a higher level than does its parent compound 29”.

`Oc1ccc(-c2ccc3c(c2)CCC3O)cc1` (centres unmarked) [Compound 32]: the “ERβ RBA (relative binding affinity)” value in assay [1] was determined as 0.190 ± 0.04. Moreover, the “ERα RBA (relative binding affinity)” value in assay [2] turned out to be 0.005 ± 0.001. In assay [4], the “PgR” value is “stimulate PgR gene expression at a level close to that of E2”.

For `Cc1cc(-c2ccc(O)cc2)cc(C)c1O` [Compound 35], the “ERβ RBA (relative binding affinity)” value in assay [1] stood at 0.755 ± 0.20. Besides, the “ERα RBA (relative binding affinity)” value in assay [2] amounted to 0.011 ± 0.003. Further, in assay [3], the “LRRC54 (non-genomic gene) mRNA expression, in words” value is listed as “principally loss of LRRC54 gene expression”.

Take `Cc1cc(-c2cccc(CCO)c2)cc(C)c1O` [Compound 44, 3′-(2-hydroxyethyl)-3,5-dimethyl-[1,1′-biphenyl]-4-ol]: in assay [1], the “ERβ RBA (relative binding affinity)” value was 0.001. Moreover, the “ERα RBA (relative binding affinity)” value in assay [2] was 0.001. Further, the “LRRC54 (non-genomic gene) mRNA expression, in words” value in assay [3] is “preferentially stimulate LRRC54 better than E2”.

With `Cc1cc(-c2ccc(CCO)cc2)cc(C)c1O` [Compound 45, 4′-(2-hydroxyethyl)-3,5-dimethyl-[1,1′-biphenyl]-4-ol], the “ERβ RBA (relative binding affinity)” value in assay [1] is recorded as 0.002. Further, in assay [2], the “ERα RBA (relative binding affinity)” value is listed as 0.001. In addition, in assay [3], the “LRRC54 (non-genomic gene) mRNA expression, in words” value is reported as “preferentially stimulate LRRC54 better than E2”.

`Cc1cc(-c2ccc3c(c2)CCC3O)ccc1O` (centres unmarked) [Compound 55, 5-(4-hydroxy-3-methylphenyl)-2,3-dihydro-1H-inden-1-ol]: the “ERβ RBA (relative binding affinity)” value in assay [1] was found to be 0.004. Besides, the “ERα RBA (relative binding affinity)” value in assay [2] is recorded as 0.002. For the same compound, in assay [4], the “PgR” value is on record as “stimulated two fold greater than that with E2”.
